Key:
AMBEL (Ragweed, Common) = assay: Postemergence herbicidal evaluation; assay type: in vivo, Ambrosia artemisifolia; conditions: postemergence
Method in brief: (§1)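 Herbicidal effect was judged by eye on a 0–9 scale covering stand, vigor, deformity, size and chlorosis, compared with controls, four to five weeks after seedlings about two weeks old were sprayed (40 psi, ~0.0156–0.500 kg/ha).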

CASOB (Sicklepod) = assay: Postemergence herbicidal evaluation; assay type: in vivo, Cassia obtusifolia; conditions: postemergence
Method in brief: as §1

GALAP (Galium) [1] = assay: Postemergence herbicidal evaluation; assay type: in vivo, Galium aparine; conditions: postemergence
Method in brief: as §1

[2] = system: GLXMAW (Soybean, Williams); assay: Postemergence herbicidal evaluation; assay type: in vivo, Glycine max, (L.) Merr. cv Williams; conditions: postemergence
Method in brief: as §1

[3] = system: TRZAWR (Wheat, Winter, cv Riband); assay: Postemergence herbicidal evaluation; assay type: in vivo, Triticum aestivum; conditions: postemergence
Method in brief: as §1

GALAP (Galium) [4] = assay: Preemergence herbicidal evaluation; assay type: in vivo, Galium aparine; conditions: preemergence, rated 4-5 weeks after treatment, 0-9 scale
Method in brief: (§2)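 Sown cups got a single aqueous acetone spray of test compound (roughly 0.0156–0.500 kg/ha) before seedlings emerged. Evaluation, 4–5 weeks on, used a 0–9 visual scale covering plant stand, vigor, size, malformation, chlorosis and general appearance compared with controls.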

SETVI (Foxtail, Green) = assay: Preemergence herbicidal evaluation; assay type: in vivo, Setaria viridis; conditions: preemergence, rated 4-5 weeks after treatment, 0-9 scale
Method in brief: as §2

ORYSAT (Rice, Tebonnet) = assay: Preemergence herbicidal evaluation; assay type: in vivo, Oryza sativa, (L.) Tebonnet; conditions: preemergence, rated 4-5 weeks after treatment, 0-9 scale
Method in brief: as §2

[5] = system: ECHORC (Watergrass (Calif.)); assay: Preemergence weed control under flooded paddy conditions; assay type: in vivo, Echinochloa oryzoides; conditions: rated 3-4 weeks after treatment
Method in brief: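 Herbicidal effect is scored visually on a 0-9 scale against an untreated control, three to four weeks after compounds are pipetted into the flood water (1.5 to 3 cm deep) over seeds planted in silt loam at 0.5 cm depth. Rates: about 0.0313 to 0.500 kg/ha.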

CYPSE (Flatsedge) = assay: as above; assay type: in vivo, Cyperus serotinus; conditions: rated 3-4 weeks after treatment
Method in brief: (§3)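 First, seeds or propagules go into the top 0.5 cm of silt loam; next, water is held 1.5 to 3 cm over the soil; then compound (50/50 acetone/water) is pipetted into it at about 0.0313 to 0.500 kg/ha; finally plants are rated visually 0-9 after three to four weeks.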

MOOVA (Monochoria) = assay: as above; assay type: in vivo, Monochoria vaginalis; conditions: rated 3-4 weeks after treatment
Method in brief: as §3

[6] = system: SAGPY (Arrowhead (Pygmaea)); assay: as above; assay type: in vivo, Sagittaria pygmaea; conditions: rated 3-4 weeks after treatment
Method in brief: as §3

[7] = system: ECHORC (Watergrass (Calif.)); assay: Postemergence weed control under flooded paddy conditions; assay type: in vivo, Echinochloa oryzoides; conditions: postemergence weeds, rated 3 to 4 weeks after treatment
Method in brief: (§4)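 Injury ratings (0–9 scale covering stand, vigor, malformation, size, chlorosis and overall appearance versus control) were made three to four weeks after treatment. Test material, about 0.0313 to 0.500 kg/ha a.i. in 50/50 v/v aqueous/acetone, was added to flood water 1.5 to 3 cm deep over 3 to 5 cm weeds and 1.5 to 2.5 leaf rice.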

[8] = system: SAGPY (Arrowhead (Pygmaea)); assay: as above; assay type: in vivo, Sagittaria pygmaea; conditions: postemergence weeds, rated 3 to 4 weeks after treatment
Method in brief: as §4

In the case of `CC(C)OC(=O)CC1SC(=Nc2cc(-n3c(=O)cc(C(F)(F)F)n(C)c3=O)c(F)cc2Cl)N(C)C1=O` (centres unmarked) [Compound 89, Isopropyl 2-{{2-chloro-5-[3,6-dihydro-3-methyl-2,6-dioxo-4-(trifluoromethyl)-1(2H)-pyrimidinyl]-4-fluorophenyl}imino}-3-methyl-4-oxo-5-thiazolidineacetate], the AMBEL herbicidal rating (AMBEL (Ragweed, Common); rate 0.0158 kg/ha) is reported as 4.0, the AMBEL herbicidal rating (AMBEL (Ragweed, Common); rate 0.0313 kg/ha) is reported as 9.0 and the AMBEL herbicidal rating (AMBEL (Ragweed, Common); rate 0.0625 kg/ha) is reported as 9.0. For the same molecule, the AMBEL herbicidal rating (AMBEL (Ragweed, Common); rate 0.1250 kg/ha) was 9.0, the CASOB herbicidal rating (CASOB (Sicklepod); rate 0.0158 kg/ha) was 0.0 and the CASOB herbicidal rating (CASOB (Sicklepod); rate 0.0313 kg/ha) was 6.0. It also gave a CASOB herbicidal rating (CASOB (Sicklepod); rate 0.0625 kg/ha) of 9.0, a CASOB herbicidal rating (CASOB (Sicklepod); rate 0.1250 kg/ha) of 9.0 and a GALAP herbicidal rating (GALAP (Galium) [1]; rate 0.0158 kg/ha) of 3.0. For the same molecule, the GALAP herbicidal rating (GALAP (Galium) [1]; rate 0.0313 kg/ha) was 4.0, the GALAP herbicidal rating (GALAP (Galium) [1]; rate 0.0625 kg/ha) was 5.0 and the GALAP herbicidal rating (GALAP (Galium) [1]; rate 0.1250 kg/ha) was 9.0. It also gave a GLXMAW herbicidal rating ([2]; rate 0.0158 kg/ha) of 7.5, a GLXMAW herbicidal rating ([2]; rate 0.0313 kg/ha) of 9.0 and a GLXMAW herbicidal rating ([2]; rate 0.0625 kg/ha) of 9.0. It also gave a GLXMAW herbicidal rating ([2]; rate 0.1250 kg/ha) of 9.0, a TRZAWR herbicidal rating ([3]; rate 0.0158 kg/ha) of 5.5 and a TRZAWR herbicidal rating ([3]; rate 0.0313 kg/ha) of 7.0. It also gave a TRZAWR herbicidal rating ([3]; rate 0.0625 kg/ha) of 7.0, a TRZAWR herbicidal rating ([3]; rate 0.1250 kg/ha) of 7.0 and a GALAP rating (GALAP (Galium) [4]; 0.0156 kg/ha) of 0.0. For the same molecule, the GALAP rating (GALAP (Galium) [4]; 0.0313 kg/ha) was 0.0, the GALAP rating (GALAP (Galium) [4]; 0.0625 kg/ha) was 0.0 and the GALAP rating (GALAP (Galium) [4]; 0.1250 kg/ha) was 4.5. For the same molecule, the GALAP rating (GALAP (Galium) [4]; 0.2500 kg/ha) was 8.5, the GALAP rating (GALAP (Galium) [4]; 0.5000 kg/ha) was 9.0 and the SETVI rating (SETVI (Foxtail, Green); 0.0156 kg/ha) was 0.0. For the same molecule, the SETVI rating (SETVI (Foxtail, Green); 0.0313 kg/ha) was 1.5, the SETVI rating (SETVI (Foxtail, Green); 0.0625 kg/ha) was 1.5 and the SETVI rating (SETVI (Foxtail, Green); 0.1250 kg/ha) was 9.0. For the same molecule, the SETVI rating (SETVI (Foxtail, Green); 0.2500 kg/ha) was 9.0, the SETVI rating (SETVI (Foxtail, Green); 0.5000 kg/ha) was 9.0 and the ORYSAT rating (ORYSAT (Rice, Tebonnet); 0.0156 kg/ha) was 0.0. The ORYSAT rating (ORYSAT (Rice, Tebonnet); 0.0313 kg/ha) was 0.5, the ORYSAT rating (ORYSAT (Rice, Tebonnet); 0.0625 kg/ha) was 2.0 and the ORYSAT rating (ORYSAT (Rice, Tebonnet); 0.1250 kg/ha) was 4.5. For the same molecule, the ORYSAT rating (ORYSAT (Rice, Tebonnet); 0.2500 kg/ha) was 8.0, the ORYSAT rating (ORYSAT (Rice, Tebonnet); 0.5000 kg/ha) was 9.0 and the “ECHORC herbicidal effect rating” value ([5]; 0.0313 kg/ha) was 3.0. The “ECHORC herbicidal effect rating” value ([5]; 0.0625 kg/ha) was 4.0, the “ECHORC herbicidal effect rating” value ([5]; 0.1250 kg/ha) was 5.0 and the “ECHORC herbicidal effect rating” value ([5]; 0.2500 kg/ha) was 6.0. The “CYPSE herbicidal effect rating” value (CYPSE (Flatsedge); 0.0313 kg/ha) was 0.0, the “CYPSE herbicidal effect rating” value (CYPSE (Flatsedge); 0.0625 kg/ha) was 0.0 and the “CYPSE herbicidal effect rating” value (CYPSE (Flatsedge); 0.1250 kg/ha) was 4.0. The “CYPSE herbicidal effect rating” value (CYPSE (Flatsedge); 0.2500 kg/ha) was 6.0, the “MOOVA herbicidal effect rating” value (MOOVA (Monochoria); 0.0313 kg/ha) was 9.0 and the “MOOVA herbicidal effect rating” value (MOOVA (Monochoria); 0.0625 kg/ha) was 9.0. The “MOOVA herbicidal effect rating” value (MOOVA (Monochoria); 0.1250 kg/ha) was 9.0, the “MOOVA herbicidal effect rating” value (MOOVA (Monochoria); 0.2500 kg/ha) was 9.0 and the “SAGPY herbicidal effect rating” value ([6]; 0.0313 kg/ha) was 4.0. For the same molecule, the “SAGPY herbicidal effect rating” value ([6]; 0.0625 kg/ha) was 5.0, the “SAGPY herbicidal effect rating” value ([6]; 0.1250 kg/ha) was 9.0 and the “SAGPY herbicidal effect rating” value ([6]; 0.2500 kg/ha) was 9.0. For the same molecule, the “Herbicidal rating ECHORC” value ([7]; Rate 0.0313 kg/ha) was 3.0, the “Herbicidal rating ECHORC” value ([7]; Rate 0.0625 kg/ha) was 4.0 and the “Herbicidal rating ECHORC” value ([7]; Rate 0.1250 kg/ha) was 5.0. For the same molecule, the “Herbicidal rating ECHORC” value ([7]; Rate 0.2500 kg/ha) was 6.0, the “Herbicidal rating SAGPY” value ([8]; Rate 0.0313 kg/ha) was 4.0 and the “Herbicidal rating SAGPY” value ([8]; Rate 0.0625 kg/ha) was 5.0. For the same molecule, the “Herbicidal rating SAGPY” value ([8]; Rate 0.1250 kg/ha) was 9.0 and the “Herbicidal rating SAGPY” value ([8]; Rate 0.2500 kg/ha) was 9.0.

Source: patent publication US20020137929A1, “1 - (3-heterocyclylphenyl) isothiourea, -isourea, -guanidine and -amidine herbicidal agents” (Intellectual Property Department, BASF Aktiengesellschaft, priority 1998, published 2002)
